# Laboratory results taken from ChEMBL document CHEMBL4339205, “Design, synthesis, and biological evaluation of novel pyrrolo[1,2-a]pyrazine derivatives” (Bioorg Med Chem Lett, 2019).
# The source made the active and inactive calls. The calls are words filed in the database; no cut-off is given here.
# Experiments:
# [1] = test system: U-937; test: Cytotoxicity against human U937 cells assessed as reduction in cell viability at 10 uM measured after 3 days by CCK8 assay; format: functional, cell-based
# [2] = test system: U-937; test: Cytotoxicity against human U937 cells assessed as reduction in cell viability measured after 3 days by CCK8 assay; format: functional, cell-based; conditions: U-937, 72 h
# [3] = target: T1, Protein farnesyltransferase (Homo sapiens) (UniProt P49354+P49356); test: Inhibition of FTase in human U937 cells assessed as reduction in p38 MAPK phosphorylation at 0.3 uM measured after 1 to 3 hrs y Western blot analysis; format: cell-based
# [4] = test system: U-937; test: Induction of apoptosis in human U937 cells assessed as late apoptotic cells at 0.3 uM measured after 3 days by muse Annexin V/dead cell reagent staining-based flow cytometry (reference value: 1.75 %); format: functional
# [5] = test system: U-937; test: Induction of apoptosis in human U937 cells assessed as early apoptotic cells at 0.3 uM measured after 3 days by muse Annexin V/dead cell reagent staining-based flow cytometry (reference value: 0.7 %); format: functional
# [6] = target: c-Jun N-terminal kinase, JNK (Homo sapiens) (UniProt P45983+P53779+P45984); test: Inhibition of JNK phosphorylation in human U937 cells at 0.3 uM measured after 1 to 3 hrs y Western blot analysis; format: cell-based
# [7] = test system: U-937; test: Induction of apoptosis in human U937 cells assessed as late apoptotic cells at 0.3 uM measured after 2 days by muse Annexin V/dead cell reagent staining-based flow cytometry (reference value: 1.75 %); format: functional
# [8] = test system: U-937; test: Induction of apoptosis in human U937 cells assessed as early apoptotic cells at 0.3 uM measured after 1 day by muse Annexin V/dead cell reagent staining-based flow cytometry (reference value: 0.7 %); format: functional
# [9] = species on record: Homo sapiens; test: Inhibition of ERK phosphorylation in human U937 cells at 0.3 uM measured after 1 to 3 hrs y Western blot analysis; format: cell-based
# [10] = test system: U-937; test: Induction of apoptosis in human U937 cells assessed as live cells at 0.3 uM measured after 3 days by muse Annexin V/dead cell reagent staining-based flow cytometry (reference value: 95.05 %); format: functional
# [11] = test system: CCD-18Co; test: Cytotoxicity against human CCD-18Co cells assessed as reduction in cell viability measured after 3 days by CCK8 assay; format: cell-based; conditions: 72 h
# [12] = test system: U-937; test: Induction of apoptosis in human U937 cells assessed as necrotic cells at 0.3 uM measured after 1 day by muse Annexin V/dead cell reagent staining-based flow cytometry (reference value: 2.5 %); format: functional
# [13] = test system: U-937; test: Induction of apoptosis in human U937 cells assessed as live cells at 0.3 uM measured after 1 day by muse Annexin V/dead cell reagent staining-based flow cytometry (reference value: 95.05 %); format: functional
# [14] = test system: U-937; test: Induction of apoptosis in human U937 cells assessed as live cells at 0.3 uM measured after 2 days by muse Annexin V/dead cell reagent staining-based flow cytometry (reference value: 95.05 %); format: functional
# [15] = test system: U-937; test: Induction of apoptosis in human U937 cells assessed as necrotic cells at 0.3 uM measured after 2 days by muse Annexin V/dead cell reagent staining-based flow cytometry (reference value: 2.5 %); format: functional
# [16] = target: T1, Protein farnesyltransferase (Homo sapiens); test: Inhibition of FTase (unknown origin); format: protein-complex assay
# [17] = test system: U-937; test: Induction of apoptosis in human U937 cells assessed as necrotic cells at 0.3 uM measured after 3 days by muse Annexin V/dead cell reagent staining-based flow cytometry (reference value: 2.5 %); format: functional
# [18] = test system: U-937; test: Induction of apoptosis in human U937 cells assessed as increase in caspase-3/7 activity up to 1 uM after 24 hrs; format: functional, cell-based
# [19] = test system: U-937; test: Induction of apoptosis in human U937 cells assessed as early apoptotic cells at 0.3 uM measured after 2 days by muse Annexin V/dead cell reagent staining-based flow cytometry (reference value: 0.7 %); format: functional
# [20] = test system: U-937; test: Induction of apoptosis in human U937 cells assessed as late apoptotic cells at 0.3 uM measured after 1 day by muse Annexin V/dead cell reagent staining-based flow cytometry (reference value: 1.75 %); format: functional
smiles,measurement,setting,value
O=C(/C=C/c1ccccn1)c1ccn2cc(-c3ccccc3)ncc12,Activity,[1],Active
same,IC50,[2],0.88 µM
COc1ccc(/C=C/C(=O)c2ccn3cc(-c4ccccc4)ncc23)cc1,Activity,[1],Active
O=C(/C=C/c1ccccc1F)c1ccn2cc(-c3ccccc3)ncc12,Activity,[1],inactive
O=C(/C=C/c1ccncc1)c1ccn2cc(-c3ccccc3)ncc12,Activity,[1],Active
same,IC50,[2],0.69 µM
O=C(/C=C/c1ccccc1Br)c1ccn2cc(-c3ccccc3)ncc12,Activity,[1],inactive
O=C(/C=C/c1cccnc1)c1ccn2cc(-c3ccccc3)ncc12,Activity,[1],Active
same,IC50,[2],0.63 µM
COc1cccc(/C=C/C(=O)c2ccn3cc(-c4ccccc4)ncc23)c1,Activity,[1],Active
O=C(/C=C/c1ccccc1I)c1ccn2cc(-c3ccccc3)ncc12,Activity,[1],inactive
COc1ccc(OC)c(/C=C/C(=O)c2ccn3cc(-c4ccccc4)ncc23)c1,Activity,[1],inactive
COc1ccccc1/C=C/C(=O)c1ccn2cc(-c3ccccc3)ncc12,Activity,[1],Active
same,IC50,[2],0.77 µM
O=C(/C=C/c1ccccc1Cl)c1ccn2cc(-c3ccccc3)ncc12,Activity,[1],inactive
COc1ccc(/C=C/C(=O)c2ccn3cc(-c4ccccc4)ncc23)c(OC)c1,inhibition,[3],Active
same,Activity,[4],5.7%
same,Activity,[5],5.95%
same,inhibition,[6],inactive
same,Activity,[7],4.2%
same,Activity,[8],2.3%
same,inhibition,[9],inactive
same,Activity,[10],83.15%
same,IC50,[11],7.44 µM
same,IC50,[2],0.18 µM
same,Activity,[12],8.4%
same,Activity,[13],84.45%
same,Activity,[14],88.55%
same,Activity,[15],5.1%
same,inhibition,[16],Active
same,Activity,[17],5.2%
same,Activity,[18],Active
same,Activity,[19],2.15%
same,Activity,[20],4.85%
Nc1ccn([C@@H]2O[C@H](CO)[C@@H](O)[C@@H]2O)c(=O)n1 [CYTARABINE],Activity,[4],10.55%
same,Activity,[1],Active
same,Activity,[5],8.7%
same,Activity,[7],5.35%
same,Activity,[8],4.2%
same,Activity,[10],69.7%
same,IC50,[2],0.002 µM
same,Activity,[12],11.2%
same,Activity,[13],79.05%
same,Activity,[14],83.2%
same,Activity,[15],8.8%
same,Activity,[17],11.05%
same,Activity,[19],2.65%
same,Activity,[20],5.55%
